The test system of one assay is C4-2ENZ-R cells. Description: SRB cell proliferation assay in enzalutamide-resistant C4-2 cells. The assay is classed as cell-based, human. To be noted: for sensitivity of C4-2ENZ-R cells compared with C4-2CON cells by half maximal inhibitory concentration (IC50): C4-2ENZ-R vs C4-2CON, 4 days, FIGS. 5A-5C. Here is the method: FIGS. 5A-5D: Dual inhibition of BET and CBP/p300 overcomes ENZ-resistance in ARPCa. A: Heatmap showing the sensitivity of control (C4-2CON) and enzalutamide-resistant C4-2 cells (C4-2ENZ-R) to various inhibitor. B-C: C4-2CON and C4-2ENZ-R cells were treated with the indicated concentrations of BET inhibitor (JQ1) and CBP/p300 inhibitor (CPI637) for 4 days, the cell proliferation was measured by SRB assay, and the 96 well plates were imaged. Data are represented as means±s.d., n=4. Statistical significance was determined by two-way ANOVA. D: C4-2ENZ-R cells were treated with the indicated concentrations of ENZ, JQ1, CPI637, or a combination of JQ1 and CPI-637, and cell proliferation was measured by a SRB assay. Data are represented as means±s.d., n=6. Statistical significance was determined by two-way ANOVA.
FIGS. 7A-7E. Full-length AR, but not AR variants, drives ENZ-resistant cell proliferation. A: C4-2CON and C4-2ENZ-R cells were treated with the indicated concentrations of ENZ, and cell proliferation was measured by SRB assay. Data are represented as means±s.d., n=6. Statistical significance was determined by two-way ANOVA. B: Heatmap showing RNA-seq read intensity of the canonical AR signature genes in C4-2CON and C4-2ENZ-R cells. C: RT-qPCR showing the mRNA level of KLK3 in C4-2CON and C4-2ENZ-R cells. Data are represented as means±s.d., n=3. Statistical significance was determined by unpaired two-tailed Student's t tests. D: Western blot analysis showing the expression of full-length (FL) AR and AR variants (Vs) in C4-2CON and C4-2ENZ-R cells. ERK2 was used as a loading control. E: UCSC genome browser tracks showing RNA-seq signals of AR and AR variants in C4-2CON and C4-2ENZ-R cells.
LNCaP, VCaP, LAPC4 PCa, and 293T cell lines were purchased from ATCC. […]
293T cells were co-transfected with control shRNA or shRNA specific for human AR, CXXC5, TET2, ID1, ID3 and PFN2. […] Cells were fixed at different time points (day 0-5) and cell growth was measured using a sulforhodamine B (SRB) assay (He et al., Nature Commun., 7:13122 (2016)).

The test system of another assay is ENZ-resistant PDXs. Description: ENZ-resistant patient-derived xenograft (PDX) tumor growth in mice. In kind it is in vivo. Conditions: castrated male mice; ENZ 10 mg/kg, CPI637 10 mg/kg, JQ1 50 mg/kg, oral gavage 5 days per week. (Xenograft models place foreign cells or tissue in a host animal.)
A further assay relates to CRPC PDX. The experiment in a line: CRPC patient-derived xenograft (PDX) tumor growth in mice. In kind it is in vivo. Conditions: ENZ 10 mg/kg daily, 32 days. The source says:
FIG. 11A-D. Upregulation of CXXC5 and ID1 in AFI-resistant PCa patients. A: H&E staining and IHC for AR, CXXC5, and ID1 in hormone naïve, CRPC and ENZ-resistant PC patient specimens. Scale bar, 200 μm. B: H&E staining and IHC for AR, CXXC5, and ID1 in ABI-resistant ARPC patient specimens. Scale bar, 200 m (low magnification); 50 m (high magnification). C-D: Comparison of ENZ response in CRPC and ENZ-resistant PDXs. CRPC and ENZ-resistant PDXs were planted into the right flank of 6 week-old male SCID mice. After the tumor volume reached about 100 mm^3, mice were randomly assigned within each tumor group and treated with 10 mg/kg of […] daily. Tumor size was measured every 4 days (C). After 32 days of treatment, tumors were isolated and photographed (D). Data are represented as means±s.d., n=8. Statistical significance was determined by two-way ANOVA.
NOD-SCID male mice were generated in house and used for animal experiments. All mice were housed under standard conditions with a 12 hour light/dark cycle and access to food and water ad libitum and maintained under pathogen-free conditions. […] Mice were treated 5 days per week by oral gavage and tumor growth was measured in a blinded fashion using digital calipers. The tumor volume was calculated using the following equation: tumor volume=length×width×width×0.5.

The next assay concerns C4-2ENZ-R xenografts. The experiment in a line: C4-2ENZ-R xenograft tumor growth in SCID mice. In kind it is in vivo. To be noted: ENZ 10 mg/kg per day, 28 days, FIGS. 1A, 1B. Here is the method: FIGS. 1A-1G. Genome-wide profiling of AR chromatin binding in ENZ-resistant PCa cells. A: Effect of ENZ treatment on growth of C4-2CON and C4-2ENZ-R xenografts in mice. C4-2ENZ-R and C4-2CON cells suspended in 0.1 mL matrigel were injected into the right flank of 6-week old male SCID mice. After the volume of tumor nodules reached about 100 mm^3, mice were randomly assigned within control and ENZ-resistant groups and were treated with ENZ at 10 mg/kg or vehicle per day and tumor volume was measured every 4 days. B: After 28 days of treatment, tumors were isolated from mice in each group and photographed. Data are represented as means±s.d., n=8. Statistical significance was determined by two-way ANOVA. […] D: AR was knocked down by specific shRNAs in C4-2CON and C4-2ENZ-R cells, and cell proliferation was measured by SRB assay. […] Statistical significance was determined by two-way ANOVA. E: Venn diagram showing AR chromatin binding peaks in C4-2CON and C4-2ENZ-R cells detected by ChIP-seq. F: Heatmaps showing ChIP-seq read intensity of AR, H3K27ac, and FOXA1 in C4-2CON and C4-2ENZ-R cells. […]
FIGS. 6A-6G. […] Representative images (scale bar, 50 μm), and quantified data are show in (a) and (b), respectively. […] Tumor size was measured every 4 days (d). After 28 days of treatment, tumors isolated from mice were photographed (e), and tumor weight was measured (f). […]

As to `Cc1sc2c(c1C)C(c1ccc(Cl)cc1)=N[C@@H](CC(=O)OC(C)(C)C)c1nnc(C)n1-2` [JQ1], in the assay on C4-2ENZ-R cells, the “sensitivity of C4-2ENZ-R cells compared with C4-2CON cells by half maximal inhibitory concentration (IC50)” value is reported as “much more sensitive”. Further, the “response of ENZ-resistant PDXs to treatment” value in the assay with ENZ-resistant PDXs is reported as “responded”.

Regarding `CNC(=O)c1ccc(N2C(=S)N(c3ccc(C#N)c(C(F)(F)F)c3)C(=O)C2(C)C)cc1F` [ENZ, enzalutamide], the “growth of C4-2ENZ-R cells under ENZ treatment in vitro” value with C4-2ENZ-R cells (in vitro, FIG. 7A) is “resistant to ENZ treatment”. Also, the “response of CRPC PDX to treatment” value with CRPC PDX is given as “still responded”. Also, the “growth of C4-2ENZ-R xenografts under ENZ treatment in vivo” value in the assay with C4-2ENZ-R xenografts is on record as “resistant to ENZ treatment”.

In the case of `C[C@@H]1CC(=O)Nc2cccc(-c3ccc4c(c3)c(-c3cnn(C)c3)nn4C)c2N1` [CPI637], the “sensitivity of C4-2ENZ-R cells compared with C4-2CON cells by half maximal inhibitory concentration (IC50)” value in the assay with C4-2ENZ-R cells is recorded as “much more sensitive”. In the assay on ENZ-resistant PDXs, the “response of ENZ-resistant PDXs to treatment” value is recorded as “responded”.
